Experiments:
[1] = solubility and appearance of pre-treatment, calcium and phosphate solutions made with the acid
Experimental: For component A containing phosphate ions, a solution containing 29.5 g NaH2PO4, 33 g Olaflur, and 27.0 g lactic acid was produced. […] A total of 24 ml of the solution and 6 g glycerol and 10 g of 300 Bloom pork rind gelatine were processed while heating to form a viscous solution. A small amount of liquid was placed in a template with a wall thickness of 500 μm and exposed to 2 bar of pressure. After solidification, the strips were removed from the template and cut into 1×1 cm squares.
For component B containing calcium ions, a calcium chloride solution containing 29.4 g calcium chloride dihydrate and 6.3 g lactic acid was prepared. […] The solution was topped up to 200 ml with de-ionized water. In order to produce the gel, 21.6 g of the solution and 8.24 g glycerol and 8 g calcium sulfate and 13.6 g 300 Bloom gelatine were mixed and heated. The liquid gel was then spread with a squeegee to a thickness of 1 mm or pressed in a template with a wall thickness of 1 mm. After solidification, the strips were cut into 1×1 cm squares. For the pre-treatment solution (mouthwash), a 0.1 mol Tris buffer was added to a 1 molar calcium chloride solution and the pH was adjusted to 9.0.

[2] = staining test for dentine-sealing effect (rhodamine, colorimetry)
Experimental: The components were produced as described in example 1.
After the application of the gels, a staining test was used to check if a dentine-sealing effect occurred. Acids that were insoluble at the requisite conditions were not tested further.
Principle of the staining test: The samples are measured by colorimetry on the coated and uncoated side after staining with 1% rhodamine solution using a Spectraflash 600 Plus two-channel spectrometer with the CIE L*a*b* system and aperture 3 mm X4SAV. The difference in colour is reported as the delta value (colour difference).
Tris buffer (pH value: 7.2 to 9.0) was used in the Ca gel. A sodium acetate buffer (pH value: 3.7 to 5.7) was used in the P gel.

[3] = as E1, P gel combined with acetic acid-Ca gel
[4] = colour difference coated vs uncoated side after staining with 1% rhodamine solution, CIE L*a*b*

Row | Structure (SMILES) | deposition after application of the kit [2] | Functional test (delta E) [2, 4] | other results
1 | O=C(O)c1ccccc1O [Salicylic acid] |  |  | solubility of the acid (merged cell spanning the solution columns) [1]: insoluble
2 | O=C(O)C(CO)c1ccccc1 (stereo not drawn) [Tropic acid] |  |  | solubility of the acid (merged cell spanning the solution columns) [1]: insoluble
3 | O=C(O)CO [Glycolic acid] | show deposition |  | Functional test (delta E) [2, 3]: 35.32 ± 4.19
4 | O=C1O[C@H]([C@@H](O)CO)C(O)=C1O [Ascorbic acid] | show deposition | 56.64 ± 9.85 | 
5 | O=C(O)CC(O)C(=O)O (stereo not drawn) [Malic acid] | show deposition | 42.41 ± 5.39 | solubility of the calcium salt of the acid [1]: sufficiently soluble; Pre-treatment solution: solubility/appearance ([1]; pH 8.5): precipitation; Pre-treatment solution: solubility/appearance ([1]; pH 9.02): pH 9.02 clear; Pre-treatment solution: solubility/appearance ([1]; pH 9.53): pH 9.53 clear
6 | CC(O)C(=O)O (stereo not drawn) [Lactic acid] | show deposition | 49.83 ± 4.02 | 
7 | N[C@@H](CC(=O)O)C(=O)O [Aspartic acid] | show deposition | 45.96 ± 2.63 | 
8 | O=C(O)c1ccc(C(=O)O)c(C(=O)O)c1 [Trimellitic acid] |  |  | Ca gel solution: solubility/appearance [1]: precipitation; Functional test (delta E) [2, 3]: 42.05 ± 11.24
